According to patent US20060088556A1 (priority 2003, published 2006):
Structures can show the parent of a compound that is named as a salt.

Key:
[1] = Solubility in phosphate buffered saline (receiver fluid); assay type: physicochemical; settings: aqueous buffer
Text: (§1) Accurate determination of the rate of transport of buspirone through the skin relies upon the maintenance of sink conditions in the receiver fluid. […] Such high solubility was sufficient to ensure sink conditions for the study.

[2] = tested on: oxazolone hypersensitivity reaction; settings: mice, cited from earlier work
[3] = Stability in the receiver fluid; assay type: physicochemical; settings: PBS receiver fluid, length of the study (48 hours)
Text: as §1

solubility [1]	stability in the receiver fluid [3]	Structure (SMILES)	oxazolone ear swelling ([2]; applied topically in an undefined solution, over the range 100 mg/ml to 0.25 mg/ml, McAloon et al. 1995)	inhibition of oxazolone hypersensitivity reactions ([2]; from U.S. Pat. No. 5,484,788, 5,631,017, WO 94/22448)
> 3000 µg/mL	–	O=C1CC2(CCCC2)CC(=O)N1CCCCN1CCN(c2ncccn2)CC1 [buspirone hydrochloride]	–	–
–	stable	O=C1CC2(CCCC2)CC(=O)N1CCCCN1CCN(c2ncccn2)CC1 [buspirone, 8-[4-[4-(2-pyrimidyl)-1-piperazinyl]butyl]-8-azaspiro[4.5]decane-7,9-dione]	inhibits oxazolone ear swelling	inhibit oxazolone hypersensitivity reactions
